{"source": "ChEMBL document CHEMBL1158873", "about": "“Chemistry of Fijian Plants. 13. 1 Floribundal, a Nonglycosidic Bisiridoid, and Six Novel Fatty Esters of -Amyrin from Scaevola floribunda” (J Nat Prod, 1997)", "system": "Artemia", "test": "Toxicity against brine shrimp", "assay_type": "organism-based", "conditions": "in vivo"}
{"smiles": "COC(=O)C[C@@H]1C(C(=O)O[C@H]2C[C@@H]3C(C(=O)OC)=CO[C@@H](O)[C@@H]3[C@H]2C)=CO[C@@H](C)[C@H]1C=O", "note": "[FLORIBUNDAL]", "values": [{"measurement": "Activity", "result": "Non-toxic"}]}
